From US20230081986A1, “METHOD AND REAGENTS TO IMPROVE NONANIMAL OCULAR TOXICITY TESTS” (Lebrun Labs LLC, priority 2021, published 2023)

Columns and labels:
[1] = tested on: rabbit cornea; test: Cornea exposure for different times, with and without the esterase inhibitor ebelactone; conditions: for state of the cornea: 6-minute exposure
Protocol: FIG. 2 depicts the effects of ebelactone on rabbit cornea.
To test this hypothesis, we incubated corneas with 100 µL of the test chemical for different exposure times and observed that methyl cyanoacetate produced a toxic effect on the eye after 6 minutes of exposure. To confirm that this increased toxicity was metabolically related, eyes were treated with ebelactone, an inhibitor of nonspecific esterases. […] Based on these findings, we updated the IVD EIT method to include the following: Each chemical is first tested using a direct 1-minute application to the eye; if negative, the chemical is then retested for 6 minutes using the metabolic test (META). All of the steps of the META test are the same as the direct test except for the dosing step. For the META, 100 µL of tear solution (saline with ascorbic acid, protein) is first added to the dosing ring, followed by the addition of 100 µL of the material to be tested.

[2] = literature review [11]; cited from earlier work

## COC(=O)CC#N [methyl cyanoacetate]
[1]; in the presence of ebelactone
  state of the cornea: somewhat swollen but there are mostly viable cells
[1]; without ebelactone
  state of the cornea: swollen with no viable cells
[1]; 100 µL, after 6 minutes of exposure
  effect on the eye: toxic effect
[2]
  classification by most nonanimal tests: misclassified as FN
